Five molecules from PMC12163635, “Synthetic Retinoids for the Modulation of Genomic and Nongenomic Processes in Neurodegenerative Diseases” (ACS Omega, 2025) can be followed below.

Experiment [1] concerns the target T1, RARα (Homo sapiens, UniProt P10276).
T1 construct: His6-3C-NusA (cleaved yes); made in house; host or cells: E. coli BL21(DE3), pET50b vector
T1 sequence (P10276 183-417 limits assumed): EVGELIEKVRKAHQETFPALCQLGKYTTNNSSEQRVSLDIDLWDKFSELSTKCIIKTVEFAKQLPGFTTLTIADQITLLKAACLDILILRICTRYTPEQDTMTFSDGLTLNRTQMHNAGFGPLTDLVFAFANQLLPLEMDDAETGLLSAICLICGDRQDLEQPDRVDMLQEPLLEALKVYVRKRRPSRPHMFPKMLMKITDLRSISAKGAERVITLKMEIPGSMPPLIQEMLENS
Nature of the experiment: Fluorescence competition binding assay (displacement of DC271). Conditions: for pKd: 100 nM RAR and DC271 on plate, read-out: Binding KD (± SD) RARα; for ΔGEXP RARα: experimental binding free energy from K D, ΔGexp=−RT ln K, 298.1 K. The protocol: (§1) Fluorescence competition assays were employed to determine the relative binding affinities of each synthetic retinoid toward the LBD of the RARs. The assay is based on the potential for competitive displacement of the inherently fluorescent retinoid DC271 from the LBP by a test nonfluorescent synthetic retinoid. Changes in the fluorescence were measured following the addition of a serial dilution of the test compound and the results were plotted to generate a binding curve. […] Assays were performed for both RARα and RARγ. […] Nonlinear least-squares regression analyses were performed to calculate binding affinities and reported as binding K D, the equilibrium dissociation constant between the RAR isoform and the test synthetic retinoid.
(§2) RARα/γ proteins were expressed in BL21(DE3) cells (NEB) transformed into pET50b (Novagen) and pOPINS3C vectors, respectively, carrying the gene construct and containing a His6-3C-NusA tag or His6-3C-SUMO tag used for solubility. Transformations were carried out under standard conditions using Quick Transformation Protocol (New England Biolabs). Successful transformants were grown overnight in 2xYT media (Melford) and frozen for storage at −80 °C in 50% glycerol. Expression cultures were inoculated from glycerol stocks into 25 mL of 2xYT media (Melford) with 50 μg/mL kanamycin or 100 μg/mL ampicillin (Sigma-Aldrich) and grown overnight with shaking (37 °C, 150 rpm). The overnight cultures were transferred into 1 L expression flasks (2xYT/ampicillin 100 μg/mL or 2xYT/kanamycin 50 μg/mL) and grown with shaking at 37 °C, 150 rpm. Induction was carried out at an OD600 of 0.6–0.8, with 1 mL of 1 M IPTG (1 mM in culture), before shaking overnight (20 h) at 18 °C. The resulting cultures were spun down into pellets using an Avanti Hi-Speed centrifuge (JLA 8.1000, 4000 rpm, 30 min, 4 °C), before the supernatant was removed and the bacterial pellet were frozen at −80 °C.
(§3) RARα/γ (pET50b or pOPINS3C, BL21(DE3) (NEB)) were resuspended from pellet with 20 mL Wash Buffer (20 mM Tris-HCl, 300 mM NaCl and 20 mM imidazole, pH 8) and the resulting suspension was sonicated on ice (40% power, 2 min, repeated twice with 1 min rest in-between) before centrifuging (Avanti Hi-Speed JA25.50, 20,000 rpm, 1 h, 4 °C). Supernatants were clarified using 0.45 μm syringe filters (Thermo Fisher Scientific). Affinity chromatography and size-exclusion (SEC) chromatography were carried out on AKTA Pure25 (Cytiva). Supernatants were loaded onto the HisTrap HP column (5 mL, Cytiva) and washed using 25 mL of wash Buffer. The column was washed with Wash Buffer until UV trace returned to baseline, before RARα/γ was eluted using a gradient of Elution Buffer (20 mM Tris-HCl, 300 mM NaCl, 500 mM imidazole pH 8). The resulting protein-containing fractions were analyzed by SDS-PAGE (200 V, 30 min) using SurePAGE Bis-Tris 12% precast gels (Genscript). Protein concentrations were estimated using absorbance at 280 nm on a DS-11 spectrophotometer (Denovix) with calculated molecular weights and extinction coefficients (Expasy). RAR proteins were cleaved overnight from 3C-NusA tag or 3C-SUMO-His tag using 1 Unit/100 μg protein of HRV3C protease (Thermo Fisher Scientific) at 4 °C. Solution after digestion was loaded onto a HiLoad 16/600 Superdex 75 prep-grade column (Cytiva) and cleaved RARα/γ was separated from the tag based on molecular weight and eluted from the column using SEC Buffer (20 mM Tris-HCl, 300 mM NaCl and 0.5 mM TCEP, pH 8) into 2 mL fractions. The resulting protein fractions were analyzed by SDS PAGE (200 V, 30 min) using SurePAGE Bis-Tris 12% precast gels (Genscript), before being concentrated to 5 mg/mL using centrifugal concentrators (Sartorius) and frozen at −80 °C in small aliquots for use in binding assays.

Experiment [2] deals with RARα. The experiment is described as above. Also on record: species or system human. Conditions: log-log plot of K D for RARα and RARγ. The protocol: as §1, §2, §3
In experiment [3] the test system is ERK1/2 phosphorylation in SH-SY5Y cells. Nature of the experiment: ERK1/2 phosphorylation (nongenomic response), AlphaScreen SureFire. Format: cell-based, human. Further details: nongenomic response Emax (±95% CI): unit not given here. The settings on record: for pEC50: Homo sapiens, read-out: nongenomic response EC50 (±95% CI). In a few lines: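 SH-SY5Y cells (100,000/well) were serum-starved for 24 h, then exposed to retinoids in serum-free DMEM for 60 min at 37 °C with 0.1% DMSO final. Phospho-ERK1/2 in lysates was read by AlphaScreen SureFire. Values come from sigmoidal log(agonist)–response fits, as mean ± SEM of three independent experiments run in triplicate.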
In general terms: Bead proximity is the source of the signal in Alpha formats.

Structures are written as SMILES. pEC50, pKd: −log10 of the molar value.

Sequence of RARα (P10276 182-417): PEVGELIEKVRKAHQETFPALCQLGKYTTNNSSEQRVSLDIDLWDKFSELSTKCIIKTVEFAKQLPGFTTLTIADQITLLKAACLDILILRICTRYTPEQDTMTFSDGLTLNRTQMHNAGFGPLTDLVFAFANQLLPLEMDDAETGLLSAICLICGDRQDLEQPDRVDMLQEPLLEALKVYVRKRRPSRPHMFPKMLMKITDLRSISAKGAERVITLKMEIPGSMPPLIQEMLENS

As to `Cc1cc2c(cc1C#Cc1ncc(C(=O)O)cn1)C(C)(C)CCC2(C)C` [Compound 28, 2-[2-(3,5,5,8,8-Pentamethyl-5,6,7,8-tetrahydronaphthalen-2-yl)ethynyl]pyrimidine-5-carboxylic Acid], on RARα [1], the pKd (as a rule, the Kd on a negative log10 scale, so that one unit is a factor of ten) was 6.38 and the “ΔGEXP RARα” value is -8.72 kcal/mol. Moreover, the “binding preference RARα versus RARγ (from K D)” value with RARα [2] was “bind RARα preferentially over RARγ”. In experiment [3] (SH-SY5Y cells, 1 h), the pEC50 – broadly, the EC50 on a negative log10 scale, so that one unit is a factor of ten – was 8.27 and the “nongenomic response Emax (±95% CI)” value is given as 44.7 (±3.15).

In the case of `Cc1sc(-c2ccc(C(=O)O)cc2F)nc1-c1cnc2c(n1)C(C)(C)CCC2(C)C` [Compound 43, 3-Fluoro-4-[5-methyl-4-(5,5,8,8-tetramethyl-5,6,7,8-tetrahydroquinoxalin-2-yl)-1,3-thiazol-2-yl]benzoic Acid], at RARα [1], the pKd was 5.59 and the “ΔGEXP RARα” value was -7.64 kcal/mol. For the same molecule, the “binding preference RARα versus RARγ (from K D)” value with RARα [2] was “close to the plotted line representing equal binding affinity for RARα and RARγ”. Besides, in experiment [3] (SH-SY5Y cells, 1 h), the “induction of ERK1/2 phosphorylation (nongenomic activity)” value is “lacked nongenomic activity”, the “nongenomic response EC50 (±95% CI)” value is reported as “no response” and the “nongenomic response Emax (±95% CI)” value was “no response”.

Consider `Cc1sc(-c2ccc(C(=O)O)cc2)nc1-c1cnc2c(n1)C(C)(C)CCC2(C)C` [Compound 40, 4-[5-Methyl-4-(5,5,8,8-tetramethyl-5,6,7,8-tetrahydroquinoxalin-2-yl)-1,3-thiazol-2-yl]benzoic Acid], for which, at RARα [1], the negative-log Kd (pKd) is 6.25 and the “ΔGEXP RARα” value was -8.58 kcal/mol. In the experiment on RARα [2], the “binding preference RARα versus RARγ (from K D)” value is “close to the plotted line representing equal binding affinity for RARα and RARγ”. In experiment [3] (SH-SY5Y cells, 1 h), the pEC50 was 10.27 and the “nongenomic response Emax (±95% CI)” value is recorded as 40.7 (±1.02). In addition, in experiment [3] (nonoverlapping 95% CI), the “nongenomic E max compared with ATRA” value is “E max values significantly lower than ATRA”.

On to `CC1(C)CCC(C)(C)c2cc(C#Cc3ccc(C(=O)O)nc3)ccc21` [Compound 24, 5-[2-(5,5,8,8-Tetramethyl-5,6,7,8-tetrahydronaphthalen-2-yl)ethynyl]pyridine-2-carboxylic Acid], for which, at RARα [1], the pKd is 7.06 and the “ΔGEXP RARα” value is -9.64 kcal/mol. Also, the “binding preference RARα versus RARγ (from K D)” value in the experiment on RARα [2] was “bind RARα preferentially over RARγ”. For the same molecule, in experiment [3] (SH-SY5Y cells, 1 h), the pEC50 is 7.87, the “induction of ERK1/2 phosphorylation (nongenomic activity)” value is on record as “showed activity toward the nongenomic pathway” and the “nongenomic response Emax (±95% CI)” value is listed as 59.7 (±3.34).

For `COc1cc2c(cc1C#Cc1cc(F)c(C(=O)O)c(F)c1)C(C)(C)CCC2(C)C` [Compound 22, 2,6-Difluoro-4-[2-(3-methoxy-5,5,8,8-tetramethyl-5,6,7,8-tetrahydronaphthalen-2-yl)ethynyl]benzoic Acid], at RARα [1], the negative-log Kd (pKd) was 6.98 and the “ΔGEXP RARα” value is -9.55 kcal/mol. Moreover, in the experiment with RARα [2], the “binding preference RARα versus RARγ (from K D)” value is “bind RARα preferentially over RARγ”. Also, in experiment [3] (SH-SY5Y cells, 1 h), the pEC50 was 8.47 and the “nongenomic response Emax (±95% CI)” value is 71.2 (±3.9).
